The text below walks through data of US10548313B2, “Acetyl-CoA carboxylase modulators” (Monsanto Technology LLC, priority 2013, dated 2020).

The target of test [1] is Ustilago maydis acetyl CoA carboxylase (ACCase) (Mycosarcoma maydis (Ustilago maydis), UniProt A0A0D1DYD5). The experiment in a line: ACCase enzymatic assay (coupled PK/LDH, NADH OD340). It is filed as biochemical. The procedure: Ustilago maydis acetyl CoA carboxylase (ACCase) was cloned, expressed, and purified as described (Weatherly et al, Biochem. J., 2004) and the test compounds were tested in a 96-well plate format. Primary in vitro screening consisted of obtaining dose response data at 100, 33, 10, and 1 μM inhibitor. Actives in the primary screen were re-tested to establish IC50 values.
Direct detection of the conversion of acetyl CoA to malonyl CoA by ACCase was not feasible, but during this process ATP is converted to ADP which allowed for detection through a standard reaction coupling with ADP recycling to the oxidation of NADH. Thus, ACCase activity was measured via kinetic OD340 measurements of the conversion of NADH to NAD in a coupled reaction involving the conversion of phosphoenolpyruvate (PEP) to lactate.
The complete 200 ul reaction mixture contained 52.5 mM HEPES (pH8), 2.625 mM MgCl2, 1 mM ATP, 0.525 mM DTT, 11 mM NaHCO3, 1% DMSO with or without inhibitor, 1× pyruvate kinase/lactate dehydrogenase (PK/LDH), 0.3 mM NADH, 0.5 mM PEP, and 5 μg ACCase. The reactions were incubated at 30° C. for 10 minutes and then initiated by the addition of 0.33 mM acetyl CoA. The initiated reactions were read immediately via plate reader at OD340 and kinetic readings were acquired every 20 s for 15 minutes while keeping the temperature at 30° C.
A slope of the kinetic curve was determined by using the 2 to 7 minute data which was then calculated as percent inhibition relative to the no inhibitor control.
The primary screens were conducted in duplicate and the IC50's conducted in triplicate. Averages were reported along with standard deviation calculation to generate error bars.
Each plate contained its own controls and consisted of a DMSO only control, 5-fold titration series of soraphen from 2 μM to 3.2 nM, and an ADP coupled reaction control.

A further test deals with Saccharomyces cerevisiae. The experiment in a line: Yeast growth inhibition assay. It is filed as cell-based. The following applies: for inhibition at 3.7 µM: read-out: S. cerevisiae % growth inhibition at 48 hours, 3.7 μM; for inhibition at 11.1 µM: read-out: S. cerevisiae % growth inhibition at 48 hours, 11.1 μM; for inhibition at 33.3 µM: read-out: S. cerevisiae % growth inhibition at 48 hours, 33.3 μM; for inhibition at 100 µM: read-out: S. cerevisiae % growth inhibition at 48 hours, 100 μM. The procedure:
Yeast cells (Ade2 strain) were grown in liquid YPD (1% yeast extract, 2% peptone, 2% dextrose) for 16 hours at 30° C. from previously sub-cultured plates of Saccharomyces cerevisiae. The OD600 of the overnight culture was checked via spectrophotometer and diluted to a concentration of 2×10^4 cells/ml.
Chemistry stocks were dissolved in DMSO to a concentration of 10 mM. Chemistry stocks were further diluted in a 96-well stock plate to obtain final concentrations of 100, 33, 10 and 1 μM in 1% DMSO. The final concentrations of the soraphen positive controls were 400, 40, and 3.2 nM. The negative controls on each plate included a background subtraction control containing yeast and 1% DMSO (without chemistry) and a second contamination control containing YPD (with no yeast) and 1% DMSO (without chemistry).
98 μl liquid YPD was added to 2 μl diluted stock of DMSO per well and mixed thoroughly. After mixing, 100 μl of the diluted yeast solution was added to bring the final yeast concentration to 1×10^4 cells/ml or 2000 cells per well. An initial spectrophotometric reading at OD600 was conducted on the entire plate and served as the 0 hour time point used to subtract any background. […] […] […] All experiments were conducted in triplicate. Averages were reported along with standard deviation calculation to generate error bars. Each plate contained its own controls and consisted of inoculated+DMSO, non-inoculated+DMSO, and a titration series of soraphen at 400, 40, and 3.2 nM.

Another test concerns Diplodia maydis. The test can be described thus: Fungal growth inhibition assay, Diplodia maydis. It is filed as cell-based. The following applies: 48 hours, read-out: D. maydis % growth inhibition at 48 hours. How it is done:
(§1) Spores were isolated from previously sub-cultured plates of Botrytis cinerea, Phytophthora capsici, Fusarium moniliforme, Fusarium viguliforme, Collectotrichum graminicola, and Diplodia maydis. All spores were filtered and collected in a sterile glass bowl to isolate the spores from the mycelia. The isolation and sub-culture plate condition for each pathogen is described below.
Spore isolation for D. maydis: A 3-4 week old PDA (pre-mix) plate was removed from 26° C. incubator with a light/dark 12 hour cycle and the mycelia were treated with 6-7 ml of sterile distilled water, scraped into a sterile petri dish, and smashed to open the pycnidia. The spores were then collected in a sterile filter bowl containing a fluted piece of filter paper and poured into a conical tube.
(§2) After spore isolation, pathogen spores were counted on a hemocytometer to calculate the spores/ml. In 17% V8 liquid media containing 3 g/L CaCO3, isolated spores were diluted to individual concentrations based on the growth curves at 48 hours of each pathogen. The spore concentrations for each pathogen were as follows: B. cinerea—10,000 sp/ml; P. capsici—300 sp/ml; F. monliforme—500 sp/ml; F. virguliforme—500 sp/ml; C. graminicola—3,000 sp/ml; and D. maydis—3,000 sp/ml.
(§3) Chemistry stocks were dissolved in DMSO at 2.5 mg/ml. Chemistry was diluted in a 96-well stock plate in five-fold dilutions to obtain a final concentration of 50, 10, and 2 ppm in vitro. The final concentration of the positive control after the five-fold dilutions was as follows: soraphen—0.5, 0.1, and 0.02 ppm. Negative controls on each plate included 2% DMSO, water containing spores and media, and a blank for background subtraction.
(§4) In a 96-well plate the spore solution, chemistries, and controls were combined to make the final solution concentrations mentioned above. Upon addition of the chemistry, an OD600 reading was done to assess chemical precipitation. The 96-well plates were incubated in plastic tubs containing wet paper towels under the following conditions, 25° C. in the dark for P. capsici and B. cinerea or 26° C. with light/dark cycle for C. graminicola, D. maydis, F. virguliforme, F. monliforme. Plate readings were repeated at 24 and 48 hrs. Visual ratings were performed at 24 and 48 hrs to check for precipitation and confirm efficacy. Visual and OD600 ratings of the chemistry at 48 hours were compared to the 2% DMSO control to determine the percent of pathogen growth inhibition.

For test [2], the system named is Collectotrichum graminicola. The experiment in a line: Fungal growth inhibition assay, Collectotrichum graminicola. It is filed as cell-based. The settings on record: Colletotrichum graminicola, 48 hours, read-out: C. graminicola % growth inhibition at 48 hours. How it is done:
as §1
Spore isolation for C. graminicola: A 1-2 week old oatmeal agar (pre-mix) plate was removed from 26° C. incubator with a light/dark 12 hour cycle and the mycelia were treated with 10-15 ml of filter sterilized distilled water. The mycelia were scraped to re-suspend the spores. The spores were then collected in a sterile filter bowl containing a piece of sterile cheesecloth and poured into a conical tube.
as §2, §3, §4

Another test has as its system Phytophthora capsici. The test can be described thus: Fungal growth inhibition assay, Phytophthora capsici. It is filed as cell-based. The following applies: 48 hours, read-out: P. capsici % growth inhibition at 48 hours.
Excerpt: as §1
Spore isolation for P. capsici: Three to five days prior to the assay a 2-3 week old V8 (17%)+CaCO3 (3 g/L)+20 g agar plate was removed from a dark 25° C. incubator and cut up into small chunks. One plate was separated into two deep well plates and rinsed with sterile distilled water three times. The cut up pieces were incubated under light in a sterile filter hood with 25 ml of sterile distilled water. On the day of the assay the water was removed and 5-7 ml of fresh sterile distilled water was added. One plate was incubated at 4° C. for 45-60 minutes and then placed at room temperature for about 45-60 minutes. The spores were collected in a sterile filter bowl containing a fluted piece of filter paper. The spores were vortexed in a conical tube for 30-60 seconds to remove the flagella of the zoospores after isolation.
as §2, §3, §4

Setting [3] is: Table 1A, values marked a are a result of two or more experiments, read-out: ACCase Inhibitory Activity IC50.

Where two headings read alike, the source gives them in different places.

Chain of Ustilago maydis acetyl CoA carboxylase (ACCase) (A0A0D1DYD5 1-2185): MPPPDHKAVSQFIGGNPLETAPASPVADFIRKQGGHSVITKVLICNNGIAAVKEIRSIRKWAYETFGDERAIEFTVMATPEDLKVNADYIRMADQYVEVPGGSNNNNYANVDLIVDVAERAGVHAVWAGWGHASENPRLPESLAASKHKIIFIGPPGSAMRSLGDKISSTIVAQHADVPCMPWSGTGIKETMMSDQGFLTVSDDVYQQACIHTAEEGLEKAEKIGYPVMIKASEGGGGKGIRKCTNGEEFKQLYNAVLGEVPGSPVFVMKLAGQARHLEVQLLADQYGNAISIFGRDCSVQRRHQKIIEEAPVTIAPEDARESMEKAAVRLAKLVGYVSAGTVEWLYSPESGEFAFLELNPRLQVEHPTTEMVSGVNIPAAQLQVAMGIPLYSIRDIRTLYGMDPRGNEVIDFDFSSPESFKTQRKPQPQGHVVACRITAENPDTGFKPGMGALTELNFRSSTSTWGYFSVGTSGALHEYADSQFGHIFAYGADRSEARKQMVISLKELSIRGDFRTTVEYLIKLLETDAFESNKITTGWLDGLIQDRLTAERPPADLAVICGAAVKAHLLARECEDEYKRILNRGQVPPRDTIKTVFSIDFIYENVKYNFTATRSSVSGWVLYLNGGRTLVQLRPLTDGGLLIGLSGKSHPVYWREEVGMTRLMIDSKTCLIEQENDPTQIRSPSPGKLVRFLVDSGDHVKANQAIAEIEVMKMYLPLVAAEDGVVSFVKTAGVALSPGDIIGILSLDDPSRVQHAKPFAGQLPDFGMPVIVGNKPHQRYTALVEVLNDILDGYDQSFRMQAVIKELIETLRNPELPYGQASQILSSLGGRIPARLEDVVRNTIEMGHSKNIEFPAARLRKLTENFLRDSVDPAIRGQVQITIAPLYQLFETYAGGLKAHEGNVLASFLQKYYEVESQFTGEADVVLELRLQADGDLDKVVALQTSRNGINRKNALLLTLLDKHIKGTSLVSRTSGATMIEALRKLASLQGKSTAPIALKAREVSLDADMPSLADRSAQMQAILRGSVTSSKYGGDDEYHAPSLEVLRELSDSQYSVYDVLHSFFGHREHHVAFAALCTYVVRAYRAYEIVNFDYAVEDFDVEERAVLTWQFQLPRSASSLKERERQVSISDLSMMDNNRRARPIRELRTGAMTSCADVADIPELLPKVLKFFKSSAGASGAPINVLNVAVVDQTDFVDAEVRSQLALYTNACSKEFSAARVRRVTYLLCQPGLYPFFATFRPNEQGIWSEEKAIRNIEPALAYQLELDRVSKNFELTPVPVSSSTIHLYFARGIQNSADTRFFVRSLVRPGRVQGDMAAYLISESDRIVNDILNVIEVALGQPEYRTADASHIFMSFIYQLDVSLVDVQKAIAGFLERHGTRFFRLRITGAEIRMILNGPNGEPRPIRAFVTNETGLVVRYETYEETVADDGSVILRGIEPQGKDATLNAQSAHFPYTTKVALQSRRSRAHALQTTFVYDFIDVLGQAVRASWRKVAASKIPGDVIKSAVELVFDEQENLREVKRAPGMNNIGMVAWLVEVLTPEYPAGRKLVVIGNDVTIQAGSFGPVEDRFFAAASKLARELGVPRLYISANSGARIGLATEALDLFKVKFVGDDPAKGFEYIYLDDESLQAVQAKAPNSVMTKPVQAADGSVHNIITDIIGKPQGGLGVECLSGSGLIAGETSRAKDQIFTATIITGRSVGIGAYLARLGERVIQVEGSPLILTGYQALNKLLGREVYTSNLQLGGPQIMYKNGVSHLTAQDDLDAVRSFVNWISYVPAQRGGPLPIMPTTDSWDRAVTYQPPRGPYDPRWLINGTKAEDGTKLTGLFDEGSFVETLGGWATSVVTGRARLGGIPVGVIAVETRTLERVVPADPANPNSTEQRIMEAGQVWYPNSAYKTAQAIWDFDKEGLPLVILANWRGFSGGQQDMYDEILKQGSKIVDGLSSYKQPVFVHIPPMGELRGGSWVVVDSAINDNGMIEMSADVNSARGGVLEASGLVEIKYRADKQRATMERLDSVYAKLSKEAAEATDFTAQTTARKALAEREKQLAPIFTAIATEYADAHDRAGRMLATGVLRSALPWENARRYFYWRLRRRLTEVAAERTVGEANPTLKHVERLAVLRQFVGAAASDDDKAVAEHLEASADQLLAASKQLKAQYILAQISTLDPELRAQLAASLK

For `N#Cc1c(C(F)(F)F)cc(-c2cccs2)nc1SC(C(=O)O)c1ccccc1` (racemic) [Formula Ia-ii, 2-((3-cyano-6-(thiophen-2-yl)-4-(trifluoromethyl)pyridin-2-yl)thio)-2-phenylacetic acid], the IC50 (commonly the midpoint of a concentration-inhibition curve) in test [1] (Table 1B, racemate vs single enantiomers, read-out: ACCase Inhibitory Activity of Racemic Mixtures and Single Enantiomers IC50) is 2020 nM. Further, in the test with Saccharomyces cerevisiae, the inhibition (usually the percentage by which the read-out fell short of the control) at 3.7 µM is 7%, the inhibition at 11.1 µM came to 0%, the inhibition at 33.3 µM was 12% and the inhibition at 100 µM was 51%.

As for `N#Cc1c(-c2ccc(Cl)cc2)cc(-c2cccs2)nc1SC(C(=O)O)c1ccccc1` (centres unmarked) [Formula Ia-i, 2-((4-(4-chlorophenyl)-3-cyano-6-(thiophen-2-yl)pyridin-2-yl)thio)-2-phenylacetic acid], in test [1] (setting [3]), the IC50 was 370 nM. In the test with Diplodia maydis, the inhibition at 2 ppm was 3%, the inhibition at 10 ppm stood at 57% and the inhibition at 50 ppm was 65%. For the same compound, in test [2], the inhibition at 2 ppm is 28%, the inhibition at 10 ppm worked out at 72% and the inhibition at 50 ppm is 92%.

As to `N#Cc1c(-c2ccccc2)cc(-c2cccs2)nc1SC(C(=O)O)c1ccccc1` (centres unmarked) [Formula Ia-iv, 2-((3-cyano-4-phenyl-6-(thiophen-2-yl)pyridin-2-yl)thio)-2-phenylacetic acid], the IC50 in test [1] (setting [3]) was 492 nM. Also, in test [2], the inhibition at 2 ppm came out at 5%, the inhibition at 10 ppm turned out to be 41% and the inhibition at 50 ppm amounted to 76%. Besides, in the test with Phytophthora capsici, the inhibition at 2 ppm came to 0%, the inhibition at 10 ppm was 11% and the inhibition at 50 ppm stood at 90%.

`COc1ccc(-c2cc(C(F)(F)F)c(C#N)c(SC(C(=O)O)c3ccccc3)n2)cc1OC` (centres unmarked) [Formula Ia-ix, 2-((3-cyano-6-(3,4-dimethoxyphenyl)-4-(trifluoromethyl)pyridin-2-yl)thio)-2-phenylacetic acid]: the IC50 in test [1] (setting [3]) came to 1600 nM. For the same compound, the inhibition at 2 ppm in the test on Diplodia maydis turned out to be 32%; in test [2], 5%; in the test with Phytophthora capsici, 10%. For the same compound, the inhibition at 10 ppm in the test on Diplodia maydis is 37%; in test [2], 17%; in the test on Phytophthora capsici, 39%. Moreover, the inhibition at 50 ppm with Diplodia maydis came to 70%; in test [2] it was 72%; in the test on Phytophthora capsici, 34%.

As to `COc1ccc(-c2cc(-c3cccs3)nc(SC(C(=O)O)c3ccccc3)c2C#N)cc1` (centres unmarked) [Formula Ia-v, 2-((3-cyano-4-(4-methoxyphenyl)-6-(thiophen-2-yl)pyridin-2-yl)thio)-2-phenylacetic acid], in test [1] (setting [3]), the half-inhibitory concentration (IC50) is 119 nM. In addition, in the test with Diplodia maydis, the inhibition at 2 ppm is 0%, the inhibition at 10 ppm stood at 61% and the inhibition at 50 ppm was determined as 52%. In addition, in test [2], the inhibition at 2 ppm worked out at 0%, the inhibition at 10 ppm turned out to be 32% and the inhibition at 50 ppm was determined as 79%.

In the case of `N#Cc1c(SC(C(=O)O)c2ccccc2)nc(-c2cccs2)c2c1CCCC2` (centres unmarked) [Formula Ia-vii, 2-((4-cyano-1-(thiophen-2-yl)-5,6,7,8-tetrahydroisoquinolin-3-yl)thio)-2-phenylacetic acid], the half-maximal inhibitory concentration (IC50) in test [1] (setting [3]) is 3800 nM. Further, in the test with Diplodia maydis, the inhibition at 2 ppm was 11%, the inhibition at 10 ppm was determined as 46% and the inhibition at 50 ppm is 64%. In test [2], the inhibition at 2 ppm was 11%, the inhibition at 10 ppm was determined as 19% and the inhibition at 50 ppm was 71%. Besides, in the test on Phytophthora capsici, the inhibition at 2 ppm was found to be 0%, the inhibition at 10 ppm came out at 9% and the inhibition at 50 ppm stood at 100%.

Regarding `COc1ccc(-c2cc(C(F)(F)F)c(C#N)c(SC(C(=O)O)c3ccccc3)n2)c(OC)c1` (centres unmarked) [Formula Ia-viii, 2-((3-cyano-6-(2,4-dimethoxyphenyl)-4-(trifluoromethyl)pyridin-2-yl)thio)-2-phenylacetic acid], the IC50 in test [1] (setting [3]) is 1720 nM. Moreover, in the test with Saccharomyces cerevisiae, the inhibition at 3.7 µM was 6%, the inhibition at 11.1 µM worked out at 23%, the inhibition at 33.3 µM was 62% and the inhibition at 100 µM turned out to be 100%.

On to `N#Cc1c(C(F)(F)F)cc(-c2ccco2)nc1SC(C(=O)O)c1ccccc1` (centres unmarked) [Formula Ia-xi, 2-((3-cyano-6-(furan-2-yl)-4-(trifluoromethyl)pyridin-2-yl)thio)-2-phenylacetic acid], for which the IC50 in test [1] (setting [3]) stood at 5430 nM. Moreover, in the test on Diplodia maydis, the inhibition at 2 ppm came out at 38%, the inhibition at 10 ppm is 54% and the inhibition at 50 ppm stood at 82%.

As to `N#Cc1c(SC(C(=O)O)c2ccccc2)nc2c(c1-c1cccs1)CCCC2` (centres unmarked) [Formula Ia-xiii, 2-((3-cyano-4-(thiophen-2-yl)-5,6,7,8-tetrahydroquinolin-2-yl)thio)-2-phenylacetic acid], the IC50 in test [1] (setting [3]) was 274 nM. In the test on Diplodia maydis, the inhibition at 2 ppm was 20%, the inhibition at 10 ppm is 13% and the inhibition at 50 ppm was 40%.
